Source: patent publication US20160206597A1, “New Use” (priority 2013, published 2016)

Key:
[1] = tested on: patients with chronic heart failure with preserved left-ventricular ejection fraction (HF-PEF); experiment: NT-proBNP in 36-week randomized double-blind study of LCZ696 vs valsartan; format: in vivo, human; conditions: for NT-proBNP at 12 weeks / NT-proBNP at 36 weeks / NT-proBNP, Baseline (12-week analysis) / NT-proBNP, Baseline (36-week analysis): geometric mean; for NT-proBNP at 12 weeks / NT-proBNP at 36 weeks: LCZ696 200 mg or valsartan 160 mg twice daily; for NT-proBNP, Baseline (12-week analysis) / NT-proBNP, Baseline (36-week analysis): baseline before treatment; for NT-proBNP, Baseline (12-week analysis): patients evaluated at 12 weeks; for NT-proBNP, Baseline (36-week analysis): patients evaluated at 36 weeks; for Ratio of change in NT-proBNP (LCZ696/valsartan) at 12 weeks: baseline to 12 weeks, 95% CI 0.64-0.92, p = 0.005
Excerpt: (§1) Men and women aged 40 years or older with a left ventricular ejection fraction of 45% or above, and a documented history of heart failure with associated signs or symptoms (dyspnea on exertion, orthopnea, paroxysmal dyspnea, and peripheral edema) are eligible. Patients are required to have an NT-proBNP >400 pg/mL at screening, be on diuretic therapy, and have a systolic blood pressure less than 140 mm Hg, or 160 mm Hg or less if on three or more blood pressure medications at randomization. Additional inclusion criteria include an estimated glomerular filtration rate (eGFR) of at least 30 ml/min/1.73 m^2 at screening (calculated by the Modification of Diet in Renal Disease formula) and a potassium concentration of no more than 5.2 mmol/L.
Patients are excluded if they had prior left ventricular ejection fraction less than 45% at any time, isolated right heart failure due to pulmonary disease, dyspnea due to non-cardiac causes such as pulmonary disease, anemia, or severe obesity, primary valvular or myocardial diseases, or coronary artery or cerebrovascular disease requiring revascularization within 3 months of screening or likely to require revascularization during the trial.

[2] = tested on: patients with chronic heart failure with preserved left-ventricular ejection fraction (HF-PEF); experiment: Echocardiographic parameters in the 36-week HF-PEF study; format: in vivo, human; conditions: for LA Volume Index, Δ from Baseline / LA Volume, Δ from Baseline / LA dimension, Δ from Baseline / LV mass index, Δ from Baseline / Relative wall thickness, Δ from Baseline: at 36 weeks
Protocol: Echocardiographic studies are performed at screening, randomization, at week 12, and week 36 or at end of study or early termination visits. Echocardiograms performed at screening are evaluated by local readers for qualifying information. All other echocardiograms are only performed in patients meeting NT-proBNP entry criterion and are evaluated centrally. For assessment of global ventricular size and function, left ventricular end-diastolic and end-systolic volumes are obtained utilizing the Simpson's rule method and left ventricular ejection fraction is derived in the usual fashion. Maximal left atrial dimension is measured in the parasternal long-axis view, and left atrial volume is assessed with the Simpson's rule method and indexed to body surface area. Measurements are made in triplicate in accordance with the recommendations of the American Society of Echocardiography. Blood pressure and heart rate are measured at all study visits with a calibrated standard sphygmomanometer and appropriate size cuff. The use of concomitant medication is recorded at each study visit.

[3] = tested on: patients with chronic heart failure with preserved left-ventricular ejection fraction (HF-PEF); experiment: Renal function parameters (eGFR, serum creatinine, urinary albumin creatinine ratio) in the 36-week HF-PEF study; format: in vivo, human; conditions: for urinary albumin creatinine ratio at baseline: baseline before treatment; for eGFR decrease over 36 weeks: p=0.007; for urinary albumin creatinine ratio at week 36: p=0.02 between groups
Protocol: The term “eGFR” refers to estimated glomerular filtration rate. Within the context of the present invention the eGFR is calculated by the Modification in Diet in Renal Disease (MDRD) formula, which is the one recommended by NICE and The Renal Association (UK), and which is based on the equation described in Levey A S, Bosch J P, Lewis J B, et al; “A more accurate method to estimate glomerular filtration rate from serum creatinine: a new prediction equation. Modification of Diet in Renal Disease Study Group.” Ann Intern Med. 1999 Mar. 16; 130(6):461-70.
as §1

[4] = tested on: patients with chronic heart failure with preserved left-ventricular ejection fraction (HF-PEF); experiment: Safety and tolerability in the 36-week HF-PEF study; conditions: 36-week study
Protocol: (§2) Eligible patients are enrolled into a 2-week, single-blind placebo run-in period, during which time they continue their background medications. ACE inhibitors and angiotensin receptor blockers are required to be discontinued 24 hours prior to randomization.
(§3) At the investigator's discretion, patients are allowed to stay on each titration dose for an additional week. […] Patients remain on these doses for the remainder of the study, although those not tolerating the maximum dose of study medication could be down-titrated to a lower dose at the Investigator's discretion and then re-challenged to the maximum dose of study medication, or remain on the lower dose.

[5] = tested on: patients with chronic heart failure with preserved left-ventricular ejection fraction (HF-PEF); experiment: NYHA class, clinical composite assessment and KCCQ in the 36-week HF-PEF study; conditions: p=0.05
Protocol: as §2, §3
The primary study endpoint is the change from baseline in NT-proBNP assessed at 12 weeks, and is analyzed using the last observation after baseline carried forward. […]
The clinical composite assessment is based on a composite of the NYHA functional classification, patient global assessment and major adverse clinical events. […] Patients are determined to be worse if at the endpoint visit they experienced a major adverse cardiac event during the double blind treatment or reported worsening of their NYHA class or patient global assessment. […]

## CCCCC(=O)N(Cc1ccc(-c2ccccc2-c2nnn[nH]2)cc1)[C@H](C(=O)O)C(C)C [Valsartan, (S)—N-valeryl-N-{[2′-(1H-tetrazole-5-yl)-biphenyl-4-yl]-methyl}-valine, reference compound]
[1]; 12 weeks
  NT-proBNP at 12 weeks: 835 pg/mL
[1]
  NT-proBNP at 36 weeks: 607 pg/mL
  NT-proBNP, Baseline (12-week analysis): 862 pg/mL
  NT-proBNP, Baseline (36-week analysis): 822 pg/mL
[2]
  LA Volume Index, Δ from Baseline: 0.31 ml/m^2
  LA Volume, Δ from Baseline: 0.37 mL
  LA dimension, Δ from Baseline: −0.08 cm
  LV mass index, Δ from Baseline: −1.93 g/m^2
  Relative wall thickness, Δ from Baseline: +0.01%
[2]; baseline before treatment
  LA Volume Index, Baseline: 36.80 ml/m^2
  LA Volume, Baseline: 68.28 mL
  LA dimension, Baseline: 3.73 cm
  LV mass index, Baseline: 79.45 g/m^2
[3]
  urinary albumin creatinine ratio at baseline: 2.0 mg/mmol
  eGFR decrease over 36 weeks: −5.2 mL/min per 1.73 m^2
  urinary albumin creatinine ratio at week 36: 2.0 mg/mmol
[4]
  Adverse event atrial fibrillation (number of patients): 8 patients
  Adverse event atrial fibrillation (percent of patients): 5.3%
  Angio-oedema occurrence: no patients
  Deaths among serious adverse events: two deaths
  Patients with one or more serious adverse events (number): 30 patients
  Patients with one or more serious adverse events (percent): 20%

## trisodium [3-((1S,3R)-1-biphenyl-4-ylmethyl-3-ethoxycarbonyl-1-butylcarbamoyl) propionate-(S)-3′-methyl-2′-(pentanoyl{2″-(tetrazol-5-ylate)biphenyl-4′-ylmethyl}amino)butyrate]hemipentahydrate [LCZ696]
[1]; 12 weeks, p=0.01
  Reduction in NT-proBNP versus valsartan after adjustment for the change in blood pressure: greater reduction
[1]; after 4 weeks of treatment, p=0.063
  Early reduction in NT-proBNP compared with the valsartan group: not significant
[1]
  Ratio of change in NT-proBNP (LCZ696/valsartan) at 12 weeks: 0.77
  NT-proBNP at 36 weeks: 496 pg/mL
  NT-proBNP, Baseline (12-week analysis): 783 pg/mL
  NT-proBNP, Baseline (36-week analysis): 763 pg/mL
[1]; listed as LZC696
  Ratio of change in NT-proBNP (LCZ696/valsartan) at 12 weeks: 0.77 (95% CI
[1]; baseline to 36 weeks, 95% CI 0.65-1.09, p = 0.20
  Ratio of change in NT-proBNP (LCZ696/valsartan) at 36 weeks: 0.85 (95% CI
[1]; 12 weeks
  NT-proBNP at 12 weeks: 605 pg/mL
[2]; after 36 weeks of treatment, p=0.003, 0.007 and 0.034
  Left atrial volume, left atrial volume index (LAVI) and left atrial dimension, result in words: reduced significantly
[2]
  LA Volume Index, Δ from Baseline: −2.61 ml/m^2
  LA Volume, Δ from Baseline: -4.61 mL
  LA dimension, Δ from Baseline: −0.15 cm
  LV mass index, Δ from Baseline: −2.78 g/m^2
  Relative wall thickness, Δ from Baseline: +0.01%
[2]; baseline before treatment
  LA Volume Index, Baseline: 35.01 ml/m^2
  LA Volume, Baseline: 65.26 mL
  LA dimension, Baseline: 3.68 cm
  LV mass index, Baseline: 76.56 g/m^2
  Relative wall thickness, Baseline: 0.37
[3]; after 36 weeks of therapy, eGFR and creatinine data
  Preservation of renal function compared with valsartan: better preserved renal function
[3]; at 36 weeks, P 0.0163
  eGFR, LSM of difference (95% CI), LCZ696 vs. Valsartan: 3.46 (0.64, 6.27) mL/min/1.73 m^2
[3]; at 36 weeks, P 0.0193
  Serum creatinine, LSM of difference (95% CI), LCZ696 vs. Valsartan: −4.83 (−8.87, −0.79) μmol/L
[3]
  urinary albumin creatinine ratio at baseline: 1.9 mg/mmol
  eGFR decrease over 36 weeks: −1.6 mL/min per 1.73 m^2
  urinary albumin creatinine ratio at week 36: 2.9 mg/mmol
[5]
  NYHA class at 36 weeks compared with the valsartan group: improvement in NYHA class
